The structures appear in SMILES notation.

The target of the assay is T1, GLUT1 (Homo sapiens, UniProt P11166).
T1 sequence (P11166 1-492): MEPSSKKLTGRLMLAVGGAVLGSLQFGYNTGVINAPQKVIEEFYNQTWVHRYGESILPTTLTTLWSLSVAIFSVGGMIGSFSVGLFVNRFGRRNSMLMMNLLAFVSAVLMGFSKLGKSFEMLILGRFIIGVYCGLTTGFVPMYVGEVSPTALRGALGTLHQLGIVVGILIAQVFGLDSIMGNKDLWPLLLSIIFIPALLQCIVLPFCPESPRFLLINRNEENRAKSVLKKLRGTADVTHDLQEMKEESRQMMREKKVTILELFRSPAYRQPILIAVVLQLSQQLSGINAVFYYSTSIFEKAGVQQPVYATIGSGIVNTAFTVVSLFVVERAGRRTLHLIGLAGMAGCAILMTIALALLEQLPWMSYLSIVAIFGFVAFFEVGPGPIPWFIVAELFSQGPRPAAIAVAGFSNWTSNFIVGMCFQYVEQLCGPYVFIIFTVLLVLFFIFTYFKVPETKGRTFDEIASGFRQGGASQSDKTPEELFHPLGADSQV
Kind of assay: Indirect measurement of GLUT1 activity by quantification of intracellular ATP levels (glucose induced ATP increase). The note with it: read-out: IC50 regarding glucose induced ATP increase (GLUT1 inhibition). Set-up: endogenous in cells; host or cells: DLD1 or CHO-K1. It is filed as cell-based. The essentials:
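DLD1 or CHO-K1 cells were starved overnight in glucose-free medium with 1% FCS, then combined with an oxidative phosphorylation inhibitor. GLUT1 activity was read as glucose-induced ATP increase, GLUT2 as fructose-induced. Intracellular ATP was quantified by CellTiter-Glo luminescence.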
As to `CC(=O)NCCNC(=O)c1ccc(Cn2nc(C)c(NC(=O)c3cc(C(F)(F)F)nc4ccc(Br)cc34)c2C)cc1` [Example 1168], the IC50 came out at 179 nM.

Consider `CC(=O)Nc1ccc2nc(C(F)(F)F)cc(C(=O)Nc3c(C)nn(Cc4ccc(F)cc4)c3C)c2c1` [Example 1169], for which the half-inhibitory concentration (IC50) was determined as 182 nM.

Consider `Cc1nn(Cc2ccc(C(=O)NCc3cccnc3)cn2)c(C)c1NC(=O)c1cc(C(F)(F)F)nc2ccc(Br)cc12` [Example 1170], for which the IC50 amounted to 189 nM.

In the case of `COC(=O)N1CCC(Cn2nc(C)c(NC(=O)c3cc(C(F)(F)F)nc4ccc(Br)cc34)c2C)CC1` [Example 1171], the 50% inhibitory concentration (IC50) was 195 nM.

As to `C=Cc1ccc(Cn2nc(C)c(NC(=O)c3cc(OC)nc4ccccc34)c2C)cc1` [Example 1172], the IC50 was 198 nM.

For the compound `Cc1nn(Cc2ccc(C(=O)Nc3ccncc3)cc2)c(C)c1NC(=O)c1cc(C(F)(F)F)nc2ccc(Br)cc12` [Example 1173], the IC50 turned out to be 198 nM.

Take `Cc1nn(Cc2ccc(C(=O)NC(C)(C)C)cc2)c(C)c1NC(=O)c1cc(C(F)(F)F)nc2ccc(Br)cc12` [Example 1174]: the IC50 turned out to be 203 nM.

In the case of `Cc1nn(CC2CCCO2)c(C)c1NC(=O)c1cc(C(F)(F)F)nc2ccc(Br)cc12` (centres unmarked) [Example 1175], the IC50 turned out to be 205 nM.

Take `Cc1ccc2nc(C)cc(C(=O)Nc3c(C)nn(CC4CCOCC4)c3C)c2c1` [Example 1176]: the IC50 stood at 208 nM.

For the compound `Cc1c(NC(=O)c2cc(C(F)(F)F)nc3ccc(Br)cc23)c(C(F)(F)F)nn1Cc1ccc(C(=O)NCCN(C)C)cn1` [Example 1177], the IC50 stood at 221 nM.

Consider `Cc1nn(Cc2ccc(C(=O)NCCCc3ccccc3)cc2)c(C)c1NC(=O)c1cc(C(F)(F)F)nc2ccc(Br)cc12` [Example 1178], for which the IC50 turned out to be 224 nM.

For `Cc1nn(Cc2ccc(C(=O)N[C@H](C)CO)cc2)c(C)c1NC(=O)c1cc(C(F)(F)F)nc2ccc(Br)cc12` [Example 1179], the IC50 came to 228 nM.

As for `Cc1nn(Cc2ccc(F)cc2)c(C(=O)N(C)C)c1NC(=O)c1cc(C(F)(F)F)nc2ccc(Br)cc12` [Example 1180], the IC50 stood at 231 nM.

For `COc1cc(C(=O)Nc2c(C)nn(CCc3ccc(F)cc3)c2C)c2ccccc2n1` [Example 1181], the IC50 stood at 237 nM.

In the case of `Cc1nn(Cc2ccc(C(=O)NC3CCCC3)cc2)c(C)c1NC(=O)c1cc(C(F)(F)F)nc2ccc(Br)cc12` [Example 1182], the IC50 is 238 nM.

In the case of `COc1ccccc1CNC(=O)c1ccc(Cn2nc(C)c(NC(=O)c3cc(C(F)(F)F)nc4ccc(Br)cc34)c2C)cc1` [Example 1183], the IC50 turned out to be 241 nM.

Turning to `Cc1nn(CC2CCN(C(=O)OC(C)(C)C)CC2)c(C)c1NC(=O)c1cc(C(N)=O)nc2ccccc12` [Example 1184], the IC50 is 242 nM.

Regarding `Cc1nn(Cc2ccc(C(=O)Nc3cccc(C(N)=O)c3)cc2)c(C)c1NC(=O)c1cc(C(F)(F)F)nc2ccc(Br)cc12` [Example 1185], the 50% inhibitory concentration (IC50) came out at 247 nM.

As to `Cc1nn(Cc2ccc(C(=O)N(C)CCO)cc2)c(C)c1NC(=O)c1cc(C(F)(F)F)nc2ccc(Br)cc12` [Example 1186], the IC50 came out at 277 nM.

Take `CNC(=O)CN(C)C(=O)c1ccc(Cn2nc(C)c(NC(=O)c3cc(C(F)(F)F)nc4ccc(Br)cc34)c2C)cc1` [Example 1187]: the IC50 was found to be 288 nM.

In the case of `COc1cc(C(=O)Nc2c(C(F)(F)F)nn(Cc3ccncc3C#N)c2C)c2ccccc2n1` [Example 1188], the concentration for half-maximal inhibition (IC50) turned out to be 290 nM.

For `COc1cc(C(=O)Nc2c(C)nn(Cc3ccncc3C#N)c2C)c2ccccc2n1` [Example 1189], the IC50 is 310 nM.

Turning to `Cc1cccc(CNC(=O)c2ccc(Cn3nc(C)c(NC(=O)c4cc(C(F)(F)F)nc5ccc(Br)cc45)c3C)cc2)c1` [Example 1190], the IC50 was found to be 312 nM.

In the case of `Cc1nn(Cc2ccc(C(=O)NCCN3CCOCC3)cn2)c(C)c1NC(=O)c1cc(C(F)(F)F)nc2ccc(Br)cc12` [Example 1191], the IC50 worked out at 335 nM.

`Cc1nn(Cc2ccc(C(=O)N3CCN(CCO)CC3)cc2)c(C)c1NC(=O)c1cc(C(F)(F)F)nc2ccc(Br)cc12` [Example 1192]: the IC50 was determined as 339 nM.

For `Cc1nn(Cc2ccc(C(=O)NCC3CCOCC3)cc2)c(C)c1NC(=O)c1cc(C(F)(F)F)nc2ccc(Br)cc12` [Example 1193], the half-inhibitory concentration (IC50) was found to be 343 nM.

Turning to `Cc1c(NC(=O)c2cc(C(F)(F)F)nc3ccc(Br)cc23)c(C(F)(F)F)nn1Cc1ccc(C(=O)N(C)C)cn1` [Example 1194], the IC50 is 363 nM.

Turning to `Cc1nn(Cc2ccc(F)cc2)c(C(N)=O)c1NC(=O)c1cc(C(F)(F)F)nc2ccc(Br)cc12` [Example 1197], the IC50 came out at 385 nM.

For the compound `Cc1nn(Cc2ccc(C#N)cc2)c(C)c1NC(=O)c1cc(C(F)(F)F)nc2ccc(-c3c(C)noc3C)cc12` [Example 1198], the IC50 was 390 nM.

Regarding `Cc1c(NC(=O)c2cc(C(F)(F)F)nc3ccc(Br)cc23)c(C(F)(F)F)nn1Cc1ccc(C(=O)N2CCOCC2)cn1` [Example 1200], the IC50 turned out to be 408 nM.

As to `Cc1nn(CC2CCN(C(=O)OC(C)(C)C)CC2)c(C)c1NC(=O)c1cc(C(F)(F)F)nc2ccc(Br)cc12` [Example 1201], the IC50 amounted to 428 nM.

Consider `COc1cc(C(=O)Nc2c(C)nn(CCc3cccc(F)c3)c2C)c2ccccc2n1` [Example 1202], for which the concentration for half-maximal inhibition (IC50) was 430 nM.

For `CCN(CC)C(=O)c1ccc(Cn2nc(C)c(NC(=O)c3cc(C(F)(F)F)nc4ccc(Br)cc34)c2C)cc1` [Example 1203], the IC50 turned out to be 433 nM.

As for `Cc1nn(Cc2ccc(C(=O)NCCC(C)(C)O)cc2)c(C)c1NC(=O)c1cc(C(F)(F)F)nc2ccc(Br)cc12` [Example 1204], the IC50 amounted to 436 nM.

On to `Cc1nn(CC2CNC(=O)O2)c(C)c1NC(=O)c1cc(C(F)(F)F)nc2ccc(Br)cc12` (centres unmarked) [Example 1206], for which the IC50 was 451 nM.

Regarding `Cc1nn(Cc2ccc(C(N)=O)cn2)c(C)c1NC(=O)c1cc(C(N)=O)nc2ccc(F)cc12` [Example 1207], the concentration for half-maximal inhibition (IC50) amounted to 477 nM.

Consider `Cc1nn(CC2COc3ccccc3O2)c(C)c1NC(=O)c1cc(C(F)(F)F)nc2ccc(Br)cc12` (centres unmarked) [Example 1208], for which the IC50 came to 481 nM.

In the case of `Cc1nn(Cc2ccc(C(=O)NCc3cccc(O)c3)cc2)c(C)c1NC(=O)c1cc(C(F)(F)F)nc2ccc(Br)cc12` [Example 1209], the IC50 was determined as 502 nM.

Take `Cc1ccc(CCNC(=O)c2ccc(Cn3nc(C)c(NC(=O)c4cc(C(F)(F)F)nc5ccc(Br)cc45)c3C)cc2)cc1` [Example 1210]: the IC50 was 572 nM.

For the compound `Cc1nn(Cc2ccc(C(=O)NCCC(C)O)cc2)c(C)c1NC(=O)c1cc(C(F)(F)F)nc2ccc(Br)cc12` (centres unmarked) [Example 1211], the IC50 was found to be 581 nM.

For the compound `Cc1nn(Cc2ccc(C(=O)N3CCN(C)CC3)cc2)c(C)c1NC(=O)c1cc(C(F)(F)F)nc2ccc(Br)cc12` [Example 1212], the IC50 came out at 598 nM.

For `CC(=O)N1CCC(Cn2nc(C)c(NC(=O)c3cc(C(N)=O)nc4ccccc34)c2C)CC1` [Example 1213], the IC50 was 614 nM.

Regarding `Cc1c(NC(=O)c2cc(C(N)=O)nc3ccccc23)c(C(=O)N(C)C)nn1Cc1ccc(F)cc1` [Example 1214], the IC50 amounted to 622 nM.

Take `Cc1nn(Cc2ccc(C(=O)N[C@H]3CCCC[C@@H]3O)cc2)c(C)c1NC(=O)c1cc(C(F)(F)F)nc2ccc(Br)cc12` [Example 1215]: the half-inhibitory concentration (IC50) turned out to be 649 nM.

On to `Cc1nn(Cc2ccc(C(=O)NCCC3CCCN3C)cc2)c(C)c1NC(=O)c1cc(C(F)(F)F)nc2ccc(Br)cc12` (centres unmarked) [Example 1216], for which the IC50 was determined as 673 nM.

For the compound `Cc1nn(Cc2ccc(C(=O)N3CCC(O)CC3)cc2)c(C)c1NC(=O)c1cc(C(F)(F)F)nc2ccc(Br)cc12` [Example 1217], the IC50 is 676 nM.

In the case of `Cc1nn(CCN2CCOCC2)c(C)c1NC(=O)c1cc(C(F)(F)F)nc2ccc(Br)cc12` [Example 1218], the IC50 worked out at 694 nM.

Regarding `Cc1nn(Cc2ccc(F)cc2)c(C(=O)NCCO)c1NC(=O)c1cc(C(F)(F)F)nc2ccc(Br)cc12` [Example 1219], the IC50 turned out to be 708 nM.

Consider `Cc1nn(CCN2CCCCC2)c(C)c1NC(=O)c1cc(C(F)(F)F)nc2ccc(Br)cc12` [Example 1220], for which the concentration for half-maximal inhibition (IC50) worked out at 723 nM.

For `Cc1nn(Cc2ccc(C(=O)N(C)C)cn2)c(C)c1NC(=O)c1cc(C(F)(F)F)nc2ccc(Br)cc12` [Example 1221], the IC50 came to 749 nM.

For `Cc1nn(CC2CCNCC2)c(C)c1NC(=O)c1cc(C(F)(F)F)nc2ccc(Br)cc12` [Example 1222], the IC50 is 883 nM.

`Cc1nn(Cc2ccc(C(=O)NCC(N)=O)cc2)c(C)c1NC(=O)c1cc(C(F)(F)F)nc2ccc(Br)cc12` [Example 1223]: the IC50 stood at 891 nM.

On to `Cc1nn(Cc2ccc(C(=O)N(C)CCN(C)C)cc2)c(C)c1NC(=O)c1cc(C(F)(F)F)nc2ccc(Br)cc12` [Example 1224], for which the IC50 is 912 nM.

For `CCOC(=O)c1nn(Cc2ccc(F)cc2)c(C)c1NC(=O)c1cc(C(F)(F)F)nc2ccc(Br)cc12` [Example 1225], the IC50 is 914 nM.

`Cc1ccc2nc(C)cc(C(=O)Nc3c(C)nn(C/C=C/c4ccccc4)c3C)c2c1` [Example 1226]: the IC50 amounted to 924 nM.

Consider `CCCCCN(CCO)C(=O)c1ccc(Cn2nc(C)c(NC(=O)c3cc(C(F)(F)F)nc4ccc(Br)cc34)c2C)cc1` [Example 1228], for which the IC50 was determined as 962 nM.

One may read the IC50 as the point on the concentration scale where inhibition reaches its midpoint.

Source of the values: patent publication US20170037028A1 (BAYER PHARMA AKTIENGESELLSCHAFT, priority 2013, published 2017).
